Measurements published in the CheMixHub viscosity set.
“And” between values parts separate entries of the source, which are not always exact repeats. Identical values can stand only once.

Assay: xn = mol fraction of the nth substance listed

N=C(N)NCCC[C@H](N)C(=O)O + O
viscosity [mPa·s]
Settings	100 kPa	101 kPa
293.15 K, x1 = 0.00045	1.015	–
293.15 K, x1 = 0.00135	1.038	–
293.15 K, x1 = 0.002247	1.06	–
293.15 K, x1 = 0.002695	1.071	–
293.15 K, x1 = 0.00359	1.094	–
293.15 K, x1 = 0.008927	–	1.295
293.15 K, x1 = 0.01246	–	1.431
298.15 K, x1 = 0.00135	0.9205	–
303.15 K, x1 = 0.00045	0.8065	–
303.15 K, x1 = 0.00135	0.8226	–
303.15 K, x1 = 0.001798	0.8306	–
303.15 K, x1 = 0.002247	0.8385	–
303.15 K, x1 = 0.003143	0.854	–
303.15 K, x1 = 0.00359	0.8618	0.8782
308.15 K, x1 = 0.003143	0.7665	–
313.15 K, x1 = 0.003143	0.6924	–
313.15 K, x1 = 0.005375	–	0.7504
313.15 K, x1 = 0.01246	–	0.9039
318.15 K, x1 = 0.002695	0.6262	–
323.15 K, x1 = 0.0018	–	0.5712
323.15 K, x1 = 0.00359	–	0.597
323.15 K, x1 = 0.005375	–	0.6242
323.15 K, x1 = 0.008927	–	0.6832
323.15 K, x1 = 0.01246	–	0.7455

O=C(CO)[C@@H](O)[C@H](O)[C@H](O)CO + O
Settings	viscosity
293.15 K, 101 kPa, x1 = 0.011	1.18 mPa·s and 1.18 mPa·s
293.15 K, 101 kPa, x1 = 0.0244	1.84 mPa·s
293.15 K, 101 kPa, x1 = 0.0411	2.73 mPa·s
293.15 K, 101 kPa, x1 = 0.0625	5.02 mPa·s
293.15 K, 101 kPa, x1 = 0.0909	10.48 mPa·s and 11 mPa·s
293.15 K, 101 kPa, x1 = 0.13	31.43 mPa·s and 32 mPa·s
298.15 K, 101 kPa, x1 = 0.0005	0.934 mPa·s and 0.934 mPa·s
298.15 K, 101 kPa, x1 = 0.0007	0.9442 mPa·s and 0.9442 mPa·s
298.15 K, 101 kPa, x1 = 0.0009	0.9494 mPa·s and 0.9494 mPa·s
298.15 K, 101 kPa, x1 = 0.0018	0.9838 mPa·s and 0.9838 mPa·s
298.15 K, 101 kPa, x1 = 0.002	0.9772 mPa·s and 0.9772 mPa·s
298.15 K, 101 kPa, x1 = 0.00201	0.944 mPa·s
298.15 K, 101 kPa, x1 = 0.004	1.063 mPa·s
298.15 K, 101 kPa, x1 = 0.00623	1.094 mPa·s
298.15 K, 101 kPa, x1 = 0.011	1.02 mPa·s and 1 mPa·s
298.15 K, 101 kPa, x1 = 0.0244	1.59 mPa·s
298.15 K, 101 kPa, x1 = 0.0411	2.15 mPa·s
298.15 K, 101 kPa, x1 = 0.0625	4.17 mPa·s
298.15 K, 101 kPa, x1 = 0.0909	8 mPa·s and 8 mPa·s
298.15 K, 101 kPa, x1 = 0.13	24.3 mPa·s and 25 mPa·s
298.15 K, 101.3 kPa, x1 = 0.002	0.93 mPa·s
298.15 K, 101.3 kPa, x1 = 0.00359	0.969 mPa·s
298.15 K, 101.3 kPa, x1 = 0.007154	1.055 mPa·s
298.15 K, 101.3 kPa, x1 = 0.01069	1.15 mPa·s
298.15 K, 101.3 kPa, x1 = 0.01421	1.252 mPa·s
298.15 K, 101.3 kPa, x1 = 0.0177	1.362 mPa·s
298.15 K, 101.3 kPa, x1 = 0.02116	1.483 mPa·s
303.15 K, 100 kPa, x1 = 0.0009	0.8331 mPa·s
303.15 K, 100 kPa, x1 = 0.0027	0.8672 mPa·s
303.15 K, 100 kPa, x1 = 0.0045	0.9015 mPa·s
303.15 K, 100 kPa, x1 = 0.0063	0.9349 mPa·s
303.15 K, 101.3 kPa, x1 = 0.002	0.834 mPa·s
308.15 K, 101 kPa, x1 = 0.00201	0.7816 mPa·s
308.15 K, 101 kPa, x1 = 0.004	0.8663 mPa·s
308.15 K, 101 kPa, x1 = 0.00623	0.8883 mPa·s
308.15 K, 101 kPa, x1 = 0.007265	0.863 mPa·s
308.15 K, 101 kPa, x1 = 0.01082	0.928 mPa·s
308.15 K, 101 kPa, x1 = 0.011	0.93 mPa·s and 0.95 mPa·s
308.15 K, 101 kPa, x1 = 0.01435	1.01 mPa·s
308.15 K, 101 kPa, x1 = 0.02129	1.189 mPa·s
308.15 K, 101 kPa, x1 = 0.0244	1.27 mPa·s
308.15 K, 101 kPa, x1 = 0.02481	1.305 mPa·s
308.15 K, 101 kPa, x1 = 0.02821	1.394 mPa·s
308.15 K, 101 kPa, x1 = 0.04021	1.833 mPa·s
308.15 K, 101 kPa, x1 = 0.0411	1.96 mPa·s
308.15 K, 101 kPa, x1 = 0.0435	1.998 mPa·s
308.15 K, 101 kPa, x1 = 0.05099	2.372 mPa·s
308.15 K, 101 kPa, x1 = 0.0625	3.08 mPa·s
308.15 K, 101 kPa, x1 = 0.0909	5.99 mPa·s and 6.05 mPa·s
308.15 K, 101 kPa, x1 = 0.13	14.76 mPa·s and 14 mPa·s
308.15 K, 101.3 kPa, x1 = 0.002	0.753 mPa·s
313.15 K, 101 kPa, x1 = 0.011	0.77 mPa·s
313.15 K, 101 kPa, x1 = 0.0244	1.12 mPa·s
313.15 K, 101 kPa, x1 = 0.0411	1.52 mPa·s
313.15 K, 101 kPa, x1 = 0.0625	2.83 mPa·s
313.15 K, 101 kPa, x1 = 0.0909	4.51 mPa·s and 4.6 mPa·s
313.15 K, 101 kPa, x1 = 0.13	11.83 mPa·s and 11.8 mPa·s
313.15 K, 101.3 kPa, x1 = 0.002	0.685 mPa·s
318.15 K, 101 kPa, x1 = 0.007256	0.696 mPa·s
318.15 K, 101 kPa, x1 = 0.01084	0.758 mPa·s
318.15 K, 101 kPa, x1 = 0.02144	0.946 mPa·s
318.15 K, 101 kPa, x1 = 0.0244	0.99 mPa·s
318.15 K, 101 kPa, x1 = 0.02474	1.021 mPa·s
318.15 K, 101 kPa, x1 = 0.03978	1.469 mPa·s
318.15 K, 101 kPa, x1 = 0.0411	1.24 mPa·s
318.15 K, 101 kPa, x1 = 0.05983	2.055 mPa·s
318.15 K, 101 kPa, x1 = 0.0625	2.3 mPa·s
318.15 K, 101 kPa, x1 = 0.0909	3.65 mPa·s
318.15 K, 101 kPa, x1 = 0.13	9.57 mPa·s and 8 mPa·s
318.15 K, 101.3 kPa, x1 = 0.002	0.625 mPa·s
323.15 K, 101 kPa, x1 = 0.011	0.69 mPa·s
323.15 K, 101 kPa, x1 = 0.0244	0.92 mPa·s
323.15 K, 101 kPa, x1 = 0.0411	1.29 mPa·s
323.15 K, 101 kPa, x1 = 0.0625	2.04 mPa·s
323.15 K, 101 kPa, x1 = 0.0909	3.4 mPa·s
323.15 K, 101 kPa, x1 = 0.13	7.81 mPa·s and 7.5 mPa·s

O=C[O-].OCC[NH2+]CCO + O
100 kPa
Settings	viscosity [mPa·s]
293.15 K, x2 = 0.8484	8.19
303.15 K, x2 = 0.4068	75.66
303.15 K, x2 = 0.4845	65.08
303.15 K, x2 = 0.7816	11.05
303.15 K, x2 = 0.8484	5.927
313.15 K, x2 = 0.2013	99.28
313.15 K, x2 = 0.2622	77.5
313.15 K, x2 = 0.7816	7.98
323.15 K, x2 = 0.2013	61.45
323.15 K, x2 = 0.7816	6.008
323.15 K, x2 = 0.9708	0.9306

O=S(=O)([O-])NC1CCCCC1.[Na+] + O
viscosity [mPa·s], 101 kPa
Settings	x1 = 0.0007834	x1 = 0.001319	x1 = 0.001692	x1 = 0.002246	x1 = 0.002766	x1 = 0.003045	x1 = 0.00349	x1 = 0.004121	x1 = 0.00513	x1 = 0.005949
293.15 K	1.028	1.045	1.058	1.078	1.096	1.107	1.124	1.147	1.184	1.217
298.15 K	0.9131	0.9289	0.9398	0.9564	0.973	0.9813	0.9953	1.015	1.047	1.075
303.15 K	0.8176	0.8313	0.8413	0.8553	0.8697	0.8768	0.889	0.9061	0.9337	0.9581
313.15 K	0.6686	0.6797	0.6875	0.6983	0.7094	0.7149	0.7243	0.7375	0.7588	0.7774
323.15 K	0.5593	0.568	0.5741	0.5829	0.5918	0.5961	0.6036	0.6142	0.6312	0.6458
